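The compound was tested at five concentrations on cells cultured in 96-well plates, with a 48-hour exposure period. Here, GI50 denotes the concentration required for 50% inhibition of growth. TGI: concentration producing complete growth inhibition.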
Experiments:
Experiment in all cases: inhibition of tumour cell growth, NCI panel, 48 h
[1] = tested on: SK-MEL-2 melanoma
[2] = tested on: OVCAR-3 ovarian
[3] = tested on: IGROV1 ovarian
[4] = tested on: UACC-62 melanoma
[5] = tested on: OVCAR-8 ovarian
[6] = tested on: ACHN renal
[7] = tested on: UO-31 renal
[8] = tested on: KM12 colon
[9] = tested on: M14 melanoma
[10] = tested on: SF-539 CNS
[11] = tested on: HOP-92 NSCLC
[12] = tested on: MALME-3M melanoma
[13] = tested on: NCI-H226 lung
[14] = tested on: HL-60(TB) leukemia
[15] = tested on: HOP-62 NSCLC
[16] = tested on: PC-3 prostate
[17] = tested on: U251 CNS
[18] = tested on: TK-10 renal
[19] = tested on: CCRF-CEM leukemia
[20] = tested on: HCT-116 colon
[21] = tested on: SK-MEL-28 melanoma
[22] = tested on: SF-295 CNS
[23] = tested on: HT29 colon
[24] = tested on: MOLT-4 leukemia
[25] = tested on: HS 578T breast
[26] = tested on: OVCAR-4 ovarian
[27] = tested on: HCC-2998 colon
[28] = tested on: T-47D breast
[29] = tested on: SN12C renal
[30] = tested on: CAKI-1 renal
[31] = tested on: K-562 leukemia
[32] = tested on: RXF 393 renal
[33] = tested on: NCI/ADR-RES ovarian
[34] = tested on: MCF7 breast
[35] = tested on: EKVX NSCLC
[36] = tested on: RPMI-8226 leukemia
[37] = tested on: SF-268 CNS
[38] = tested on: DU-145 prostate
[39] = tested on: MDA-MB-435
[40] = tested on: NCI-H460 lung
[41] = tested on: BT-549 breast
[42] = tested on: COLO 205 colon
[43] = tested on: NCI-H522 lung
[44] = tested on: SK-MEL-5 melanoma
[45] = tested on: SW-620 colon
[46] = tested on: 786-0 renal
[47] = tested on: A498 renal
[48] = tested on: SR leukemia
[49] = tested on: SNB-19 CNS
[50] = tested on: HCT-15 colon
[51] = tested on: A549 NSCLC
[52] = tested on: MDA-MB-231 breast
[53] = tested on: LOX IMVI melanoma
[54] = tested on: NCI-H23 lung
[55] = tested on: SNB-75 CNS
[56] = tested on: SK-OV-3 ovarian
[57] = tested on: UACC-257 melanoma
[58] = tested on: OVCAR-5 ovarian

Question: What does the source list for `CN1CCN(c2nc(-c3cnc4ccccc4n3)cc3ccccc23)CC1`?
Answer: GI50 [1]: 30.8 µM; TGI [1]: > 54.7 µM; GI50 [2]: 18.8 µM; TGI [2]: > 100 µM; GI50 [3]: 7.96 µM; TGI [3]: > 55.2 µM; GI50 [4]: 2840 nM; TGI [4]: 8.23 µM; GI50 [5]: 10.3 µM; TGI [5]: > 100 µM; GI50 [6]: 9.5 µM; TGI [6]: > 66.3 µM; GI50 [7]: 3670 nM; TGI [7]: > 49.3 µM; GI50 [8]: > 64.6 µM; TGI [8]: > 100 µM; GI50 [9]: 1.88 µM; TGI [9]: 3.65 µM; GI50 [10]: 8 µM; TGI [10]: > 51.2 µM; GI50 [11]: 2760 nM; TGI [11]: > 69.7 µM; GI50 [12]: 4.45 µM; TGI [12]: 9.15 µM; GI50 [13]: 35.8 µM; TGI [13]: > 100 µM; GI50 [14]: 4.21 µM; TGI [14]: 9.46 µM; GI50 [15]: > 38200 nM; TGI [15]: > 58.9 µM; GI50 [16]: 10.3 µM; TGI [16]: > 100 µM; GI50 [17]: 8 µM; TGI [17]: > 48.4 µM; GI50 [18]: > 41.8 µM; TGI [18]: > 62.7 µM; GI50 [19]: 9.44 µM; TGI [19]: > 90.3 µM; GI50 [20]: 3.51 µM; TGI [20]: 8.19 µM; GI50 [21]: 2.29 µM; TGI [21]: 5.27 µM; GI50 [22]: 7.88 µM; TGI [22]: 20.3 µM; GI50 [23]: 3.39 µM; TGI [23]: 11.7 µM; GI50 [24]: 4.7 µM; TGI [24]: > 48.9 µM; GI50 [25]: 15.1 µM; TGI [25]: > 67.6 µM; GI50 [26]: > 43800 nM; TGI [26]: > 91.1 µM; GI50 [27]: 2170 nM; TGI [27]: 5.11 µM; GI50 [28]: 12.4 µM; TGI [28]: 31.2 µM; GI50 [29]: 12.6 µM; TGI [29]: > 48.6 µM; GI50 [30]: 9.79 µM; TGI [30]: > 100 µM; GI50 [31]: 2.3 µM; TGI [31]: 6.34 µM; GI50 [32]: 4.97 µM; TGI [32]: 15.1 µM; GI50 [33]: 21.5 µM; TGI [33]: > 100 µM; GI50 [34]: 6.61 µM; TGI [34]: 20.7 µM; GI50 [35]: > 56800 nM; TGI [35]: > 100 µM; GI50 [36]: 3.04 µM; TGI [36]: 13 µM; GI50 [37]: > 46.8 µM; TGI [37]: > 100 µM; GI50 [38]: > 52.1 µM; TGI [38]: > 100 µM; GI50 [39]: 3.53 µM; TGI [39]: 12.7 µM; GI50 [40]: 3.67 µM; TGI [40]: 13.1 µM; GI50 [41]: 39.6 µM; TGI [41]: > 79.3 µM; GI50 [42]: 1.84 µM; TGI [42]: 3.67 µM; GI50 [43]: 18.1 µM; TGI [43]: > 56.8 µM; GI50 [44]: 7.39 µM; TGI [44]: > 50.4 µM; GI50 [45]: 2.22 µM; TGI [45]: 5.11 µM; GI50 [46]: 10.9 µM; TGI [46]: 24 µM; GI50 [47]: > 68400 nM; TGI [47]: > 100 µM; GI50 [48]: 2020 nM; TGI [48]: 6.04 µM; GI50 [49]: > 53.7 µM; TGI [49]: > 100 µM; GI50 [50]: 2.95 µM; TGI [50]: 9.19 µM; GI50 [51]: > 32.1 µM; TGI [51]: > 100 µM; GI50 [52]: 6.47 µM; TGI [52]: > 50.3 µM; GI50 [53]: 2820 nM; TGI [53]: 7.66 µM; GI50 [54]: 30.7 µM; TGI [54]: > 100 µM; GI50 [55]: 16.7 µM; TGI [55]: > 88.6 µM; GI50 [56]: > 44800 nM; TGI [56]: > 72 µM; GI50 [57]: 1.89 µM; TGI [57]: 3.91 µM; GI50 [58]: > 36 µM; TGI [58]: > 72.9 µM

Question: Which results are given for `Cn1ncc2ncc(-c3ccc4ncc(C#N)c(N5CCc6cc(F)c(Cl)cc65)c4c3)cc21`?
Answer: GI50 [1]: 5.65 µM; TGI [1]: 37.7 µM; GI50 [2]: 2.66 µM; TGI [2]: 83.6 µM; GI50 [3]: 1.22 µM; TGI [3]: 4.61 µM; GI50 [4]: 1650 nM; TGI [4]: 11.7 µM; GI50 [5]: 4.47 µM; TGI [5]: > 100 µM; GI50 [6]: 2.49 µM; TGI [6]: > 100 µM; GI50 [7]: 251 nM; TGI [7]: 10.5 µM; GI50 [8]: 5.35 µM; TGI [8]: > 100 µM; GI50 [9]: 6.02 µM; TGI [9]: > 100 µM; GI50 [10]: 3.78 µM; TGI [10]: 61.7 µM; GI50 [11]: 2270 nM; TGI [11]: 8.75 µM; GI50 [12]: 2.14 µM; TGI [12]: 14.9 µM; GI50 [13]: 1.86 µM; TGI [13]: 20.9 µM; GI50 [14]: 7.84 µM; TGI [14]: > 100 µM; GI50 [15]: 2740 nM; TGI [15]: > 100 µM; GI50 [16]: 2.27 µM; TGI [16]: > 100 µM; GI50 [17]: 5.46 µM; TGI [17]: > 100 µM; GI50 [18]: 9.02 µM; TGI [18]: > 100 µM; GI50 [19]: 4.62 µM; TGI [19]: > 100 µM; GI50 [20]: 9.79 µM; TGI [20]: > 100 µM; GI50 [21]: 4.92 µM; TGI [21]: > 100 µM; GI50 [22]: 2.57 µM; TGI [22]: > 100 µM; GI50 [23]: 3.82 µM; TGI [23]: > 100 µM; GI50 [24]: 3.01 µM; TGI [24]: > 100 µM; GI50 [25]: 1.44 µM; TGI [25]: 5.41 µM; GI50 [26]: 2640 nM; TGI [26]: 31.5 µM; GI50 [27]: 3260 nM; TGI [27]: > 100 µM; GI50 [28]: 2.03 µM; TGI [28]: 31.1 µM; GI50 [29]: 1.93 µM; TGI [29]: > 100 µM; GI50 [30]: 2.31 µM; TGI [30]: 79 µM; GI50 [31]: 4.73 µM; TGI [31]: > 100 µM; GI50 [33]: 3.27 µM; TGI [33]: > 100 µM; GI50 [34]: 2.44 µM; TGI [34]: > 100 µM; GI50 [35]: 2350 nM; TGI [35]: 14.6 µM; GI50 [36]: 3.28 µM; TGI [36]: > 100 µM; GI50 [37]: 4.11 µM; TGI [37]: > 100 µM; GI50 [38]: 4.05 µM; TGI [38]: > 100 µM; GI50 [39]: 3.13 µM; TGI [39]: 11.8 µM; GI50 [40]: 4.93 µM; TGI [40]: > 100 µM; GI50 [41]: 3.75 µM; TGI [41]: 85.6 µM; GI50 [42]: 5.8 µM; TGI [42]: > 100 µM; GI50 [43]: 3.28 µM; TGI [43]: > 100 µM; GI50 [44]: 6.97 µM; TGI [44]: 21.9 µM; GI50 [45]: 7.04 µM; TGI [45]: > 100 µM; GI50 [46]: 4.13 µM; TGI [46]: > 100 µM; GI50 [47]: 2610 nM; TGI [47]: 7.7 µM; GI50 [48]: 3670 nM; TGI [48]: > 100 µM; GI50 [49]: 6.72 µM; TGI [49]: > 100 µM; GI50 [50]: 3.49 µM; TGI [50]: > 100 µM; GI50 [51]: 4.05 µM; TGI [51]: > 100 µM; GI50 [52]: 2.6 µM; TGI [52]: 28.1 µM; GI50 [53]: 2260 nM; TGI [53]: 38.4 µM; GI50 [54]: 4.8 µM; TGI [54]: > 100 µM; GI50 [55]: 0.769 µM; TGI [55]: 5.47 µM; GI50 [56]: 2710 nM; TGI [56]: > 100 µM; GI50 [57]: 9.46 µM; TGI [57]: > 100 µM; GI50 [58]: 3.71 µM; TGI [58]: > 100 µM
